Experimental findings from ChEMBL document CHEMBL1133393, “Synthesis of 8-chloro-benzo[c]quinolizin-3-ones as potent and selective inhibitors of human steroid 5alpha-reductase 1” (Bioorg Med Chem Lett, 2000) are described below.

Structures are written as SMILES.

The target of this experiment is T1, 3-oxo-5-alpha-steroid 4-dehydrogenase 1 (Homo sapiens, UniProt P18405).
T1 sequence (P18405 whole entry): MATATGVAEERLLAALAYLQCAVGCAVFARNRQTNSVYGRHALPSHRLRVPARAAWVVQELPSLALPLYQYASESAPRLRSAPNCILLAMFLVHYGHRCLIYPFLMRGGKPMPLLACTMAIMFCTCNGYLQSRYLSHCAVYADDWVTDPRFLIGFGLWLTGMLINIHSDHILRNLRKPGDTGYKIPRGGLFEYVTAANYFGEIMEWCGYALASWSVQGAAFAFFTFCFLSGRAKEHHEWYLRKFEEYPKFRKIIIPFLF
The experiment can be described thus: Inhibition of human Steroid 5-alpha-reductase type I.

In general, IC50 refers to the concentration that gives 50% inhibition. A low value points to greater potency. The molecule `CC(C)CCCC(C)[C@H]1CCC2C3C(CC[C@@]21C)[C@@]1(C)CCC(=O)N(C)C1C[C@@H]3C` (some centres not stated) displayed an IC50 of 0.5 nM. That is a sub-nanomolar value.

For `C[C@H]1Cc2cc(Cl)ccc2N2CCC(=O)C=C12`, the 50% inhibitory concentration (IC50) turned out to be 346 nM. This IC50 is about 690-fold higher than that of the molecule before.

For `O=C1C=C2CCc3cc(Cl)ccc3N2CC1`, half-maximal inhibition (IC50) required 49 nM.

The molecule `O=C1C=CN2c3ccc(Cl)cc3CC[C@H]2C1` gave a 50% inhibitory concentration (IC50) of 459 nM.

Regarding `C[C@@H]1C[C@H]2CC(=O)C=CN2c2ccc(Cl)cc21`, half-maximal inhibition (IC50) required 188 nM.

`C[C@H]1Cc2cc(Cl)ccc2N2C=CC(=O)C[C@H]12` had a half-inhibitory concentration (IC50) of 9100 nM.

Molecule `C[C@@H]1CC2=CC(=O)CCN2c2ccc(Cl)cc21` had an IC50 of 14.4 nM.
